Assay results as given in ChEMBL document CHEMBL4311993, “Structure-activity relationship study of NPP1 inhibitors based on uracil-N1-(methoxy)ethyl-β-phosphate scaffold” (Eur J Med Chem, 2019).
Each block holds one compound with its values, some of them ahead of it. Activity calls are given as the source filed them. No cut-off for these calls is given here.

How the values were obtained:
[1] = target: T1, Ectonucleotide pyrophosphatase/phosphodiesterase family member 1 (Homo sapiens) (UniProt P22413); assay: Inhibition of human NPP1 expressed in COS7 cell membranes at 100 uM using pNP-TMP as substrate preincubated for 3 mins followed by substrate addition and measured after 15 mins relative to control
T1 sequence (whole entry): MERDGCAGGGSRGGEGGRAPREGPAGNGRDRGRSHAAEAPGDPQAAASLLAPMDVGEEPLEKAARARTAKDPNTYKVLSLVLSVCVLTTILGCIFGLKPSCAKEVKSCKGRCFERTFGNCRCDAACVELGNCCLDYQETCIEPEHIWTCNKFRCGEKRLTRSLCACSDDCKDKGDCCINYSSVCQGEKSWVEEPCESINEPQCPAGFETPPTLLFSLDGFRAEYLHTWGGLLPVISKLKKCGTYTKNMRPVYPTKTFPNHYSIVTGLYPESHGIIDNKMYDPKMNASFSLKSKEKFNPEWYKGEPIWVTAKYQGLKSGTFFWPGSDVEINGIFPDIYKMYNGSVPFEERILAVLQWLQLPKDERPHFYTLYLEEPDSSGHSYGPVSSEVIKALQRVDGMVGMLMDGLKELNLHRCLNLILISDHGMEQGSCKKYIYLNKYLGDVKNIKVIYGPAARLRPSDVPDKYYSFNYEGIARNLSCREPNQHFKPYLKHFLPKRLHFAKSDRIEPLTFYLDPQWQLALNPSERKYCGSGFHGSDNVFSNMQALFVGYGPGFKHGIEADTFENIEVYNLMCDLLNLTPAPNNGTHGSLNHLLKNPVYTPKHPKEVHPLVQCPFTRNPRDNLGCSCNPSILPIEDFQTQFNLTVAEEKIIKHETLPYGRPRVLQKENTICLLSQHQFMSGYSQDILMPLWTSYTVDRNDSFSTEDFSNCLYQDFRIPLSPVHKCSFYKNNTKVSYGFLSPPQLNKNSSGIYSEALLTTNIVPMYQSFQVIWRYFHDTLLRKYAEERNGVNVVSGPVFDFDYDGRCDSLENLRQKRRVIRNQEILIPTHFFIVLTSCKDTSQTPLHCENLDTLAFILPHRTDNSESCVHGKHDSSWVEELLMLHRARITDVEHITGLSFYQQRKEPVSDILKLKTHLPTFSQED

[2] = target: T2, Ectonucleotide pyrophosphatase/phosphodiesterase family member 3 (Homo sapiens) (UniProt O14638); assay: Inhibition of human NPP3 expressed in COS7 cell membranes at 100 uM using pNP-TMP as substrate preincubated for 3 mins followed by substrate addition and measured after 15 mins relative to control
T2 sequence (whole entry): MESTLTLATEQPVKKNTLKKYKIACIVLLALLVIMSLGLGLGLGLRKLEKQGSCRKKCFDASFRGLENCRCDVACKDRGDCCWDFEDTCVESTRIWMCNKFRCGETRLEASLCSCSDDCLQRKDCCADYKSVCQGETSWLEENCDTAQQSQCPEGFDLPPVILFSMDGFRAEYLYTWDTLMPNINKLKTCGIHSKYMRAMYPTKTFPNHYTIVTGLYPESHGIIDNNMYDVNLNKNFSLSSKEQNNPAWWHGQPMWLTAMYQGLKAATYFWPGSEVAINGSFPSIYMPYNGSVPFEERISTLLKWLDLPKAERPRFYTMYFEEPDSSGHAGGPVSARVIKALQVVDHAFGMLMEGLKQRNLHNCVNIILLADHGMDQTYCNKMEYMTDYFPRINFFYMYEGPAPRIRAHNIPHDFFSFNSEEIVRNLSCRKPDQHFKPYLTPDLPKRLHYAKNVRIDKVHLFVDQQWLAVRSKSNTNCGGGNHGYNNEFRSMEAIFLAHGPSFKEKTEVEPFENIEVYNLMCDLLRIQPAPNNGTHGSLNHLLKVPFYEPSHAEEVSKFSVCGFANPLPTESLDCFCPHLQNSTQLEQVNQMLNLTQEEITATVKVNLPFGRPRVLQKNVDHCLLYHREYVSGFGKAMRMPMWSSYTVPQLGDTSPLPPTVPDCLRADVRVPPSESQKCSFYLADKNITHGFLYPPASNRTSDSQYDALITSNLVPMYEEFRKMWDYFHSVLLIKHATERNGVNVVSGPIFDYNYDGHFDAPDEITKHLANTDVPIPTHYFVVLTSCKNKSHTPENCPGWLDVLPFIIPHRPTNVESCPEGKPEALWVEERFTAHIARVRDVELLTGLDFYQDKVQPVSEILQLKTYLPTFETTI

[3] = target: T3, Ectonucleotide pyrophosphatase/phosphodiesterase family member 1 (Homo sapiens, UniProt P22413); assay: Inhibition of human NPP1 expressed in COS7 cell membranes using pNP-TMP as substrate preincubated for 3 mins followed by substrate addition and measured after 15 mins by Dixon plot analysis
T3 sequence (P22413 whole entry): T1 sequence (whole entry)

[4] = target: P2Y purinoceptor 2 (Homo sapiens) (UniProt P41231); assay: Agonist activity at human P2Y2 receptor expressed in AD293 cells assessed as inositol-1-phosphate accumulation at 100 uM; assay type: functional, cell-based
[5] = target: P2Y purinoceptor 2 (Homo sapiens) (UniProt P41231); assay: Antagonist activity at human P2Y2 receptor expressed in AD293 cells assessed as inhibition of UTP-induced inositol-1-phosphate accumulation at 100 uM; assay type: functional, cell-based
[6] = target: P2Y purinoceptor 4 (Homo sapiens) (UniProt P51582); assay: Agonist activity at human P2Y4 receptor expressed in AD293 cells assessed as inositol-1-phosphate accumulation at 0.1 to 100 uM; assay type: functional, cell-based
[7] = target: P2Y purinoceptor 4 (Homo sapiens) (UniProt P51582); assay: Antagonist activity at human P2Y4 receptor expressed in AD293 cells assessed as inhibition of UTP-induced inositol-1-phosphate accumulation at 0.1 to 100 uM; assay type: functional, cell-based
[8] = target: P2Y purinoceptor 6 (Homo sapiens) (UniProt Q15077); assay: Antagonist activity at human P2Y6 receptor expressed in AD293 cells assessed as inhibition of UDP-induced inositol-1-phosphate accumulation at 0.1 to 100 uM; assay type: functional, cell-based
[9] = target: P2Y purinoceptor 6 (Homo sapiens) (UniProt Q15077); assay: Agonist activity at human P2Y6 receptor expressed in AD293 cells assessed as inositol-1-phosphate accumulation at 100 uM; assay type: functional, cell-based
[10] = species on record: Homo sapiens; assay: Inhibition of alkaline phosphatase in human primary chondrocyte at 100 uM using p-nitrophenyl phosphate as substrate after 30 mins by […] relative to control
[11] = Cytotoxicity against human primary chondrocytes at 100 uM after 24 hrs by XTT assay
[12] = target: T3, Ectonucleotide pyrophosphatase/phosphodiesterase family member 1; assay: Inhibition of full-length human NPP-1 expressed in baculovirus infected Sf9 cells using p-Nph5-TMP as substrate after 60 mins by colorimetric assay

Sequence of P2Y purinoceptor 4 (Homo sapiens) (P51582 whole entry): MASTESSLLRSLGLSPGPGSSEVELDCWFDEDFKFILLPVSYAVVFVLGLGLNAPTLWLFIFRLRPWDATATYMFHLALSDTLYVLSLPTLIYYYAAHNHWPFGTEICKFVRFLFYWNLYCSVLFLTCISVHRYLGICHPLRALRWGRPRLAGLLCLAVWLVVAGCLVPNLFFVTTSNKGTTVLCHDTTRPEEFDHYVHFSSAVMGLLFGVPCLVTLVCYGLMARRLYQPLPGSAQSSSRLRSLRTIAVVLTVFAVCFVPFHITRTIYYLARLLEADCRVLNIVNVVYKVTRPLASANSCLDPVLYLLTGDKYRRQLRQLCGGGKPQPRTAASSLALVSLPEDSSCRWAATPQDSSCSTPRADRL
Sequence of P2Y purinoceptor 6 (Homo sapiens) (Q15077 whole entry): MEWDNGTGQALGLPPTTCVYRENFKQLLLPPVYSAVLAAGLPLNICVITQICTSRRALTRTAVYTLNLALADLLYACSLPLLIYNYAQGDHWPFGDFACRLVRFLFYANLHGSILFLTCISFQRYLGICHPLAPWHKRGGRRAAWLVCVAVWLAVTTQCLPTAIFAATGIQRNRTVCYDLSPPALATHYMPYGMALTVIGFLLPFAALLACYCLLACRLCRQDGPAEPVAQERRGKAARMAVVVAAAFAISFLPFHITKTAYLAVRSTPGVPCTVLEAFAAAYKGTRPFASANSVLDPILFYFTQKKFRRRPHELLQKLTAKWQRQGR
Sequence of P2Y purinoceptor 2 (Homo sapiens) (P41231 whole entry): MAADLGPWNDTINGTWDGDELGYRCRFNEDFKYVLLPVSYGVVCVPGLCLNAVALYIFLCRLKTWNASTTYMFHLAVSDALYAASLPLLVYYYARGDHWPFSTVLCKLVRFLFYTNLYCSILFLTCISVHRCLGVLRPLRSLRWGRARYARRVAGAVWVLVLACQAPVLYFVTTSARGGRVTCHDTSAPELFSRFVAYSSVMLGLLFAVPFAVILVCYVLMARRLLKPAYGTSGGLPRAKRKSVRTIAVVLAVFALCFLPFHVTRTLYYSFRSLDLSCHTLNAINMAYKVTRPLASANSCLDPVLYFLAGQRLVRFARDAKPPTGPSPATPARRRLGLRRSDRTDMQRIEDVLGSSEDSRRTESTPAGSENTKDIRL

Structure (SMILES): O=c1ccn(COCCOP(=S)(S)OP(=O)(O)OP(=O)(O)O)c(=O)[nH]1 (stereo not drawn)
inhibition [1]: 96 to 98%
inhibition [2]: 31%
Ki [3]: 1280 nM
Activity [4]: inactive
inhibition [5]: inactive
Activity [6]: inactive
inhibition [7]: inactive
inhibition [8]: inactive
Activity [9]: Active
inhibition [10]: < 10%
Activity [11]: Non-Toxic

Structure (SMILES): O=c1ccn(COCCOP(=S)(S)OP(=O)(O)O)c(=O)[nH]1 (stereo not drawn)
inhibition [1]: 96 to 98%
inhibition [2]: 30%
Ki [3]: 2830 nM
Activity [4]: inactive
inhibition [5]: inactive
Activity [6]: inactive
inhibition [7]: inactive
inhibition [8]: inactive
Activity [9]: Active
inhibition [10]: < 10%
Activity [11]: Non-Toxic

Ki [12]: 16.3 µM
Structure (SMILES): Nc1ncnc2c1ncn2COCCOP(=O)(O)CP(=O)(O)O
